This is an account of results in publication PMC9365693 (Nature, 2022).

One assay deals with Staphylococcus simulans. Description: Sytox green membrane damage assay, S. simulans. The assay is classed as cell-based. The protocol:
The bacterial cultures were grown overnight at 30 °C in TSB media for S. simulans and at 37 °C in LB medium for Bacillus subtilis. Secondary cultures were grown for 3 h until OD600 = 0.5 was reached. The bacterial cells were then centrifuged at 1,500g for 10 min at 4 °C and washed twice with 10 ml of buffer (10 mM Tris, 100 mM NaCl, 1 mM MgCl2 and 0.5% glucose, pH 7.2). The bacterial cells were resuspended to an OD600 = 10 in the buffer and used for the experiment. […] For the assay, 1 μl of the bacterial suspension was added to 1 ml of buffer. For the ion leakage assays, 1 μl of the DiSC-2 probe from a 1 mM stock was added to the cuvette and the fluorescence was measured between a wavelength of 650 nm and 670 nm (bandwidth of […]) for 2 min before the addition of the antibiotic and 6 min after. For the Sytox green leakage assays, 1 μl of the Sytox green probe from a 0.25 mM stock was added to the cuvette and the fluorescence was measured between a wavelength of 500 nm and 520 nm (bandwidth of […]) for 2 min before the addition of the antibiotic and 6 min after. All experiments were performed in triplicates.

Another assay deals with S. simulans. As to the kind of experiment: MIC, S. simulans (given with permeabilization assay concentrations). To be noted: S. simulans. The assay is classed as cell-based.
Assay [1] is described as follows: Confocal microscopy of GUVs doped with Atto 550-labelled lipid II. To be noted: DOPC GUVs with 0.1 mol% Atto 550-lipid II, 1 μM teixobactin, 3 h; biological triplicates. On the procedure:
We used a self-assembled GUV cell, aligned with two titanium electrodes in a closed Teflon chamber (volume = 500 μl). Of 0.5 mM DOPC doped with Atto 550-labelled lipid II (0.1 mol%), 1 μl was brushed on the titanium electrodes. The GUV cell was dried under vacuum. Next, the chamber was filled with 350 μl 0.1 M sucrose solution, the electrodes dipped in and connected to a power supply of a sine wave (2.5 V; 10 Hz; 90 min). Each microscopy slide (m-slide 8 well, Ibidi) was incubated with 350 μl BSA solution (1 mg ml^−1) for 1 h. To detach the GUVs, the power supply was changed to square wave (2 V; 2 Hz; 15 min). The slides were washed once with water and 0.1 M glucose solution. The slides were immersed in 300 μl of 0.1 M glucose solution to which 50 μl of GUVs was added. […] GUVs were imaged using Zeiss LSM 880 with ×63/1.2 NA glycerol and ×100/1.2 NA oil objective lenses. The Atto 550 label appeared red upon excitation by the 560-nm laser. The brightfield was used for detection and location of the GUVs and to observe their shape. Zeiss Zen Black software was used for the analysis of the images.

A short description of assay [2]: Mobility-edited H(H)C ssNMR: membrane topology of lipid II-bound teixobactin. To be noted: 300 K, T2 filter 2.5 ms. The source says:
(§1) T1rho trajectories were fit to single exponentials.
Extended Data Fig. 8 The membrane topology of the complex. a) and b) show mobility-edited (‘T2-filtered’) ^1H(^1H)^13C ssNMR experiments[37] of ^13C,^15N-teixobactin bound to Lipid II. […] For each residue, peak areas were integrated using Topspin 4.06. Signals that were used for the integration are annotated. e) Membrane topology visualized with the ssNMR structure. Hydrophilic (in blue) and hydrophobic (brown) residues are sharply separated above and below the β-sheet, respectively. Note that the N-terminal Phe1 at the rim of the β-sheet has higher water accessibility, potentially because of fraying and mobility effects. f) Normalized contacts to water and lipid-tails, back-calculated over the MD simulation based on our ssNMR structure. g) Membrane topology using a different structure of the calculated ssNMR ensemble. As shown in Extended Data Fig. 9a, the despi-cycle is plastic and can point up towards the water phase, bringing End10 well-above the membrane-plane. Source data

Assay [3] can be described thus: Intermolecular teixobactin–teixobactin ssNMR contacts (2D 13C13C). Particulars: 2D 13C13C ssNMR, 600 ms transfer, lipid II-bound.
Description: as §1
Solid-state NMR ^13C-^13C PARISxy spectra of the ^13C,^15N-teixobactin – Lipid II complex in membranes show several cross-peaks (in red) that cannot be intramolecular contacts because this would require magnetization transfer over more than 10 Å. Rather, these cross-peaks correspond to intermolecular contacts between different teixobactin molecules and agree with the formation of antiparallel β-sheets.

Assay [4] in a line: Static 31P ssNMR: membrane perturbation. To be noted: lipid II-doped DOPC large unilamellar vesicles.
A short description of assay [5]: Isothermal titration calorimetry (ITC), lipid II-containing LUVs titrated into drug. The assay is classed as binding. Details: dG / dH / -TdS: unit not given here. On the procedure:
Isothermal titration calorimetry
For isothermal titration calorimetry (ITC) measurements large unilamellar vesicles (LUVs) containing lysine-lipid II were prepared by incorporating 2 mol% of lysine-lipid II in DOPC from the stock solution. The lipids were dried under a nitrogen stream and hydrated with buffer (20 mM HEPES and 50 mM NaCl, pH 7) to a lipid-phosphate concentration of 20 mM. Finally, unilamellar vesicles were obtained after ten rounds of extrusion through 200-nm membrane filters (Whatman Nuclepore, Track-Etch Membranes). ITC experiments were performed with the Affinity ITC (TA Instruments-Waters LLC) to determine interaction between LUVs and teixobactin. […] The samples were degassed before use. […] The number of injections was 23. Experiments were performed at 37 °C and analysed using the Nano Analyze Software (TA instruments-Water LLC). All experiments were performed in triplicates. Control experiments were performed with lipid II-free DOPC LUVs. The independent model was used to determine the interaction between teixobactin and lipid II. ITC data of R4L10-teixobactin were previously published.

A short description of assay [6]: 15N T1rho ssNMR relaxation of lipid II-bound teixobactin. Particulars: 60 kHz MAS, in membranes.
Description: as §1

The test system of the next assay is Gram-positive pathogens. Particulars: cited from earlier work. On the procedure: Antibiotics that use novel mechanisms are needed to combat antimicrobial resistance[1]–[3]. […] Here we unravel the mechanism of teixobactin at the atomic level using a combination of solid-state NMR, microscopy, in vivo assays and molecular dynamics simulations. […] (Fig. 4h and Extended Data Fig. 10b,c).

Where [7] appears, read: source data Figure 3e, ITC, Avg of Expt 1-3.
The mark [8] stands for this setting: source data Figure 3e, ITC, Expt 1.
The mark [9] stands for this setting: source data Figure 3e, ITC, Expt 2.
[10] abbreviates: source data Figure 3e, ITC, Expt 3.

Entries after “also recorded” stand apart in the source; their conditions may differ. Where only a bound is given, the exact number is not on record here.

In the case of teixobactin, the “membrane damage, Sytox green (in words)” value in the assay on Staphylococcus simulans (Sytox green, Gram-positive bacteria, 20 °C, pH 7.2, 2 min before and 6 min after antibiotic, triplicates) was “Although less pronounced than for nisin, teixobactin also showed clear effects with Sytox green”. For the same substance, the “time of membrane defects in intact bacteria” value in the assay with Staphylococcus simulans (intact bacteria, DiSC / Sytox green assays) is listed as ≤ 10 min. Also, the “concentration stated as 1× MIC” value in the assay on S. simulans turned out to be 0.5 µM. In addition, the “GUV oligomerization and membrane perturbation (in words)” value in assay [1] is listed as “formation of micron-sized teixobactin–lipid II oligomers; also recorded: pronounced concave membrane perturbations at the oligomerization sites”. In addition, the “membrane topology (in words)” value in [2] was “localizes at the water–membrane interface with the hydrophobic residues Ile2, Ile5 and Ile6 partitioned in the bilayer”. The “antiparallel β-sheet formation (in words)” value in assay [3] is given as “strongly supports that natural teixobactin also forms antiparallel β-sheets”. Moreover, the “membrane perturbation by static 31P ssNMR (in words)” value in assay [4] was “incubation with teixobactin markedly changed the signal”. Moreover, the equilibrium dissociation constant (Kd) in assay [5] (ITC, DOPC LUVs with 2 mol% lysine-lipid II, 20 mM HEPES 50 mM NaCl pH 7, 30 μM drug, 37 °C, mean of three experiments, b18 prints ± 0.008) came to 80 nM; in [5] (source data Figure 3e, ITC pH 7, 37 °C, Expt 1) it was 67.4 nM; in assay [5] (source data Figure 3e, ITC pH 7, 37 °C, Expt 2), 92 nM; in assay [5] (source data Figure 3e, ITC pH 7, 37 °C, Expt 3), 68.9 nM. Moreover, the dG in assay [5] (setting [7]) is on record as -42.29; in assay [5] (setting [8]) it was -42.58; in [5] (setting [9]) it was -41.78; in [5] (setting [10]), -42.52. For the same substance, the dH is recorded as -35.03 in assay [5] (setting [7]), -34.03 in assay [5] (setting [8]), -37.92 in assay [5] (setting [9]) and -33.14 in [5] (setting [10]). Further, the “-TdS” value in [5] (source data Figure 3e, ITC, Plot, avg) is -7.26. The “overall dynamics in the complex (in words)” value in assay [6] is on record as “The overall dynamics of the molecule is very slow”. Also, in the assay with Gram-positive pathogens (MRSA, S. pneumoniae, vancomycin-resistant Enterococci), the “antibacterial activity (in words)” value is listed as “broad activity against multidrug-resistant Gram-positive pathogens”. The “bacterial killing compared with vancomycin (in words)” value in the assay with Gram-positive pathogens was “more effective in killing bacteria than vancomycin”. For the same substance, the “resistance (in words)” value with Gram-positive pathogens was “lack of resistance”.
